# Measured values reported in publication PMC10221320.
# Positions of bridges follow the written chain, without caps; N, C: chain ends. No end group written: not given here.
# Experiments:
# rat ASIC3 (rASIC3) [1] = conditions: ref [41]; read-out: EC50, potentiation of rASIC3 current; cited from earlier work
# rat ASIC3 (rASIC3) [2] = test: Two-electrode voltage clamp, rASIC3 in Xenopus laevis oocytes; format: cell-based; conditions: 1 μM; pH drop from 7.4 to 5.5; −50 mV; n = 5; recombinant peptide
# CD-1 mice [3] = test: Acute toxicity, intravenous; format: in vivo, mouse; conditions: 1 mg/kg i.v., single; 24 h observation
# Method: (§1) The animal studies were performed under the European Commission’s legislation (Directives 86/609/EEC, 2010/63/EU), the National Standard of the Russian Federation “Good Laboratory Practice” (GOST P 53434-2009, Moscow, Russia), and Committee on Ethics of Laboratory Animal Handling № 05/21, 20 September 2021 and 08/21, 30 December 2021 protocols (PIBOC FEB RAS). Adult female CD-1 mice weighing 25 ± 2 g were subjected to a 12 h light–dark cycle at room temperature and with ad libitum access to food and water. There were seven or eight individuals in each group.
# Lyophilized peptides were dissolved in 0.9% NaCl solution (saline) and administered once intravenously at doses of 1 mg/kg; the control group received saline (10 mL/kg or 250 µL/mouse). Then, alterations in physiological parameters, such as motility, behavioral responses and physical activity, were registered in each of the animal groups over 24 h.
# rat ASIC1a (rASIC1a) = test: Two-electrode voltage clamp, rASIC1a in Xenopus laevis oocytes; format: cell-based; conditions: 1 μM; pH drop from 7.4 to 5.5; −50 mV; n = 5; recombinant peptide
# CD-1 mice [4] = test: Elevated plus maze test; format: in vivo, mouse; conditions: for N (h-d), number of hanging-down reactions / N (racks), vertical activity / N (sap), number of stretch-attend postures / N. entries, closed arms / N. entries, open arms / S (act), distance traveled during activity / S, distance traveled / T (act), activity time / T (e.c.z.), time of exit from the central zone / T (pass), passivity time / V, average travel speed / V(act), average movement speed during activity / N. entries, central area / T., time spent in closed arms / T., time spent in central area / T., time spent in open arms: mean ± SD
# Method: as §1
# The anti-anxiety activity of the peptides was studied using the elevated plus maze (OpenScience, Krasnogorsk, Russia) test, a cruciform arena raised 50 cm above the floor, where the central platform and two arms are open and lightened, and two arms are closed with walls. Three groups of animals were treated with peptides at doses of 0.01, 0.1 and 1 mg/kg (intravenously) 30 min before testing. The control group was injected with an identical volume (50 µL) of sterile saline. Animals were placed in the center of the lightened arena and the recording lasted 5 min. Using the software “Minotaur” (LLC “Neurobiotics”, Zelenograd, Russia), 12 parameters were estimated: time (T) of activity(act); passivity (pass); spent in closed, open arms, and on the central area; exit from the central zone (e.c.z.); average travel speed (V, m/s); average movement speed during activity (V(act)); distance traveled (S, m); distance traveled during activity (S (act)); a number (N) of entries into open, closed arms, and exits to the central area (entries); vertical activity (racks); and stretch–attend posture when the animal stretches to its full length mainly using the forepaws (sap).
# CD-1 mice [5] = test: Carrageenan-induced paw edema; format: in vivo, mouse
# Method: as §1
# Three groups of animals were treated with peptides at doses of 0.01, 0.1 and 1 mg/kg (intravenously) 30 min before the induction of inflammation. The control animal group received an identical volume of saline. The positive control group received diclofenac (Hemofarm A.D., Vršac, Serbia) at a dose of 1 mg/kg. The edema was induced by a 20 µL injection of 1.5% solution of λ-carrageenan (Sigma Aldrich, St. Louis, MO, USA) in the hind paw pad. The resulting edema was measured after 1, 2, 4 and 24 h using a plethysmometer (Ugo Basile, Gemonio (VA), Italy). The anti-inflammatory threshold was estimated as a decrease in the paw volume and volume growth index (%), calculated using the formula: Volume Growth Index (%) = [(VC − Vi)/Vi] × 100, (1), where VC is the volume of the paw after the introduction of carrageenan and Vi is the volume of the paw before the introduction of carrageenan.
# [6] = intraperitoneal administration; ref [40]; cited from earlier work
# [7] = 0.01 mg/kg i.v. 30 min before testing, n = 7–8
# [8] = 0.1 mg/kg i.v. 30 min before testing, n = 7–8
# [9] = 1 mg/kg i.v. 30 min before testing, n = 7–8
sequence,measurement,setting,value
"GTPCDCYGYTGVYWFMLSRCPSGYGYNLSCHYFMGICCVKR (disulfide 4-37, 6-30, 20-38 (inferred)) [Hmg 1b-4]",EC50,rat ASIC3 (rASIC3) [1],1530 ± 70 nM
same,potentiation of rASIC3 currents,rat ASIC3 (rASIC3) [2],29%
same,toxicity symptoms,CD-1 mice [3],did not cause the symptoms of neurotoxicity or obvious changes in the behavior of animals
same,inhibition of rASIC1a currents,rat ASIC1a (rASIC1a),45%
same,"N (h-d), number of hanging-down reactions",CD-1 mice [4]; [7],19 ± 6.6
same,"N (racks), vertical activity",CD-1 mice [4]; [7],34 ± 14.3
same,"N (sap), number of stretch-attend postures",CD-1 mice [4]; [7],15 ± 2.3
same,"N. entries, closed arms",CD-1 mice [4]; [7],18 ± 4.8
same,"N. entries, open arms",CD-1 mice [4]; [7],15 ± 3.3
same,"S (act), distance traveled during activity",CD-1 mice [4]; [7],42.6 ± 8.0 m
same,"S, distance traveled",CD-1 mice [4]; [7],44.3 ± 8.3 m
same,"T (act), activity time",CD-1 mice [4]; [7],161.7 ± 10.6 s
same,"T (e.c.z.), time of exit from the central zone",CD-1 mice [4]; [7],3 ± 1.5 s
same,"T (pass), passivity time",CD-1 mice [4]; [7],137.7 ± 11.2 s
same,"V, average travel speed",CD-1 mice [4]; [7],0.15 ± 0.03 m/s
same,"V(act), average movement speed during activity","CD-1 mice [4]; 0.01 mg/kg i.v. 30 min before testing, n = 7–8 (SD on later line: Hmg 1b-2 0.02, Hmg 1b-4 0.02)",0.26 m/s
same,"N. entries, central area","CD-1 mice [4]; 0.01 mg/kg i.v. 30 min before testing, n = 7–8 (SD on later line: Hmg 1b-2 11.3)",36±9.4
same,"T., time spent in closed arms","CD-1 mice [4]; 0.01 mg/kg i.v. 30 min before testing, n = 7–8 (SD on later line: Hmg 1b-2 35.7, Hmg 1b-4 18.7)",180.1 s
same,"N (h-d), number of hanging-down reactions",CD-1 mice [4]; [8],20 ± 8.3
same,"N (racks), vertical activity",CD-1 mice [4]; [8],41 ± 4.8
same,"N (sap), number of stretch-attend postures",CD-1 mice [4]; [8],17 ± 3.6
same,"N. entries, central area",CD-1 mice [4]; [8],38 ± 8.4
same,"N. entries, closed arms",CD-1 mice [4]; [8],20 ± 6.6
same,"N. entries, open arms",CD-1 mice [4]; [8],22 ± 3.5
same,"S (act), distance traveled during activity",CD-1 mice [4]; [8],45.1 ± 6.1 m
same,"S, distance traveled",CD-1 mice [4]; [8],46.8 ± 6.1 m
same,"T (act), activity time",CD-1 mice [4]; [8],170.8 ± 16.1 s
same,"T (e.c.z.), time of exit from the central zone",CD-1 mice [4]; [8],8 ± 3.6 s
same,"T., time spent in central area",CD-1 mice [4]; [8],78.7 ± 15.3 s
same,"T., time spent in closed arms",CD-1 mice [4]; [8],169 ± 30.2 s
same,"T., time spent in open arms",CD-1 mice [4]; [8],84.3 ± 28.7 s
same,"V, average travel speed",CD-1 mice [4]; [8],0.14 ± 0.02 m/s
same,"V(act), average movement speed during activity","CD-1 mice [4]; 0.1 mg/kg i.v. 30 min before testing, n = 7–8 (SD on later line: Hmg 1b-2 0.01, Hmg 1b-4 0.03)",0.27 m/s
same,"T (pass), passivity time","CD-1 mice [4]; 0.1 mg/kg i.v. 30 min before testing, n = 7–8 (SD on later line: Hmg 1b-2 19.8)",128 ± 15.7 s
same,"N (h-d), number of hanging-down reactions",CD-1 mice [4]; [9],18 ± 5.2
same,"N (racks), vertical activity",CD-1 mice [4]; [9],45 ± 8.4
same,"N (sap), number of stretch-attend postures",CD-1 mice [4]; [9],14 ± 1.8
same,"N. entries, central area",CD-1 mice [4]; [9],29 ± 3.4
same,"N. entries, closed arms",CD-1 mice [4]; [9],19 ± 3.3
same,"N. entries, open arms",CD-1 mice [4]; [9],20 ± 2.5
same,"S (act), distance traveled during activity",CD-1 mice [4]; [9],41.0 ± 7.5 m
same,"S, distance traveled",CD-1 mice [4]; [9],43.1 ± 7.1 m
same,"T (act), activity time",CD-1 mice [4]; [9],174 ± 17.9 s
same,"T (e.c.z.), time of exit from the central zone",CD-1 mice [4]; [9],8 ± 6.5 s
same,"T., time spent in central area",CD-1 mice [4]; [9],73.8 ± 14.6 s
same,"T., time spent in open arms",CD-1 mice [4]; [9],89.6 ± 18.5 s
same,"V, average travel speed",CD-1 mice [4]; [9],0.14 ± 0.03 m/s
same,"V(act), average movement speed during activity","CD-1 mice [4]; 1 mg/kg i.v. 30 min before testing, n = 7–8 (SD on later line: Hmg 1b-2 0.02, Hmg 1b-4 0.04)",0.25 m/s
same,"T (pass), passivity time","CD-1 mice [4]; 1 mg/kg i.v. 30 min before testing, n = 7–8 (SD on later line: Hmg 1b-2 21.9, Hmg 1b-4 17.7)",125.7 s
same,"T., time spent in closed arms","CD-1 mice [4]; 1 mg/kg i.v. 30 min before testing, n = 7–8 (SD on later line: Hmg 1b-2 32.7, Hmg 1b-4 17.2)",160.2 s
same,"activity and immobility time, travelled distance and mean speed",CD-1 mice [4]; i.v.,approximately the same in all groups
same,anxiolytic effect,CD-1 mice [4]; i.v.,exhibit an anxiolytic effect
same,number of hangings from open sleeves,CD-1 mice [4]; i.v.,increase in the number of hangings from open sleeves
same,rears number,CD-1 mice [4]; i.v.,increase
same,"close area (closed arms) preference, share of time","CD-1 mice [4]; i.v., control group 63%",50%
same,reduction of volume of paw edema vs control,"CD-1 mice [5]; 0.01 mg/kg i.v., only after 24 h",1.5 times
same,paw volume relative to original values,"CD-1 mice [5]; 0.1 mg/kg i.v., 24 h",reduced the volume of the paw almost to the original values
same,reduction of paw edema,"CD-1 mice [5]; 0.1 mg/kg i.v., after 24 h",~4 times
same,reduction of paw edema,"CD-1 mice [5]; 1 mg/kg i.v., after 24 h",approximately 2 times
same,anti-inflammatory effect,"CD-1 mice [5]; 0.1 and 1 mg/kg i.v., after 2, 4 and 24 h",statistically significant anti-inflammatory effect
same,effect compared with diclofenac,CD-1 mice [5]; 1 and 0.1 mg/kg i.v. at 24 h,exceeded the effect of diclofenac
same,reduction of paw edema,"CD-1 mice [5]; 1 and 0.1 mg/kg i.v., after 4 h",1.5 times
same,paw volume and growth index of edema,"CD-1 mice [5]; i.v., at 1 and 2 h",decreased slightly
same,maximal nontoxic dose,[6],10 mg/kg
